tested on: not listed separately; test: Antiproliferative activity against human OVCAR8 cells assessed as cell growth at 10^-4 M after 48 hrs by sulforhodamine B assay; type: functional; settings: OVCAR-8, 48 h, read-out: Activity

| Structure (SMILES) | growth at 100 µM |
| --- | --- |
| CNC(=O)c1cc(Oc2ccc3nc(NC(=O)Nc4ccc(Cl)c(Cl)c4)sc3c2)ccn1 | -52% |

tested on: NCI-H460; test: Antiproliferative activity against human NCI-H460 cells assessed as cell growth at 10^-8 M after 48 hrs by sulforhodamine B assay; type: functional; settings: NCI-H460, 48 h, read-out: Activity

| Structure (SMILES) | growth at 0.01 µM |
| --- | --- |
| CNC(=O)c1cc(Oc2ccc3nc(NC(=O)Nc4ccc(Cl)c(Cl)c4)sc3c2)ccn1 | 104% |

tested on: K562; test: Antiproliferative activity against human K562 cells assessed as cell growth at 10^-8 M after 48 hrs by sulforhodamine B assay; type: functional; settings: K562, 48 h, read-out: Activity

| Structure (SMILES) | growth at 0.01 µM |
| --- | --- |
| CNC(=O)c1cc(Oc2ccc3nc(NC(=O)Nc4ccc(Cl)c(Cl)c4)sc3c2)ccn1 | 99% |

tested on: not listed separately; test: Antiproliferative activity against human HCT116 cells assessed as cell growth at 10^-6 M after 48 hrs by sulforhodamine B assay; type: functional; settings: HCT-116, 48 h, read-out: Activity

| Structure (SMILES) | growth at 1 µM |
| --- | --- |
| CNC(=O)c1cc(Oc2ccc3nc(NC(=O)Nc4ccc(Cl)c(Cl)c4)sc3c2)ccn1 | 88% |

tested on: NCI-H460; test: Antiproliferative activity against human NCI-H460 cells assessed as growth inhibition after 48 hrs by sulforhodamine B assay; type: functional; settings: NCI-H460, 48 h

| Structure (SMILES) | GI50 | LC50 (concentration killing 50% of cells) | TGI |
| --- | --- | --- | --- |
| CNC(=O)c1cc(Oc2ccc3nc(NC(=O)Nc4ccc(Cl)c(Cl)c4)sc3c2)ccn1 | 2.43 µM | > 100 µM | 5.32 µM |

tested on: T47D; test: Antiproliferative activity against human T47D cells assessed as cell growth at 10^-4 M after 48 hrs by sulforhodamine B assay; type: functional; settings: read-out: Activity

| Structure (SMILES) | growth at 100 µM |
| --- | --- |
| CNC(=O)c1cc(Oc2ccc3nc(NC(=O)Nc4ccc(Cl)c(Cl)c4)sc3c2)ccn1 | -21% |

tested on: 786-0; test: Antiproliferative activity against human 786-0 cells assessed as cell growth at […] after 48 hrs by sulforhodamine B assay; type: functional; settings: 786-0, 48 h, read-out: Activity

| Structure (SMILES) | growth at 100 µM |
| --- | --- |
| CNC(=O)c1cc(Oc2ccc3nc(NC(=O)Nc4ccc(Cl)c(Cl)c4)sc3c2)ccn1 | -67% |

tested on: not listed separately; test: Antiproliferative activity against human HOP92 cells assessed as cell growth at 10^-4 M after 48 hrs by sulforhodamine B assay; type: functional; settings: HOP-92, 48 h, read-out: Activity

| Structure (SMILES) | growth at 100 µM |
| --- | --- |
| CNC(=O)c1cc(Oc2ccc3nc(NC(=O)Nc4ccc(Cl)c(Cl)c4)sc3c2)ccn1 | -66% |

tested on: not listed separately; test: Antiproliferative activity against human SNB19 cells assessed as growth inhibition after 48 hrs by sulforhodamine B assay; type: functional; settings: SNB-19, 48 h

| Structure (SMILES) | GI50 | LC50 (50% lethal concentration) | TGI |
| --- | --- | --- | --- |
| CNC(=O)c1cc(Oc2ccc3nc(NC(=O)Nc4ccc(Cl)c(Cl)c4)sc3c2)ccn1 | 1.99 µM | 7.95 µM | 3.98 µM |

tested on: not listed separately; test: Antiproliferative activity against human OVCAR3 cells assessed as growth inhibition after 48 hrs by sulforhodamine B assay; type: functional; settings: OVCAR-3, 48 h

| Structure (SMILES) | GI50 | LC50 | TGI |
| --- | --- | --- | --- |
| CNC(=O)c1cc(Oc2ccc3nc(NC(=O)Nc4ccc(Cl)c(Cl)c4)sc3c2)ccn1 | 2.3 µM | > 100 µM | 5.38 µM |

tested on: not listed separately; test: Antiproliferative activity against human PC3 cells assessed as cell growth at 10^-7 M after 48 hrs by sulforhodamine B assay; type: functional; settings: PC-3, 48 h, read-out: Activity

| Structure (SMILES) | growth at 0.1 µM |
| --- | --- |
| CNC(=O)c1cc(Oc2ccc3nc(NC(=O)Nc4ccc(Cl)c(Cl)c4)sc3c2)ccn1 | 100% |

tested on: not listed separately; test: Antiproliferative activity against human UACC257 cells assessed as growth inhibition after 48 hrs by sulforhodamine B assay; type: functional; settings: UACC-257, 48 h

| Structure (SMILES) | GI50 |
| --- | --- |
| CNC(=O)c1cc(Oc2ccc3nc(NC(=O)Nc4ccc(Cl)c(Cl)c4)sc3c2)ccn1 | 2.25 µM |

same assay, conditions: UACC-257, 48 h, read-out: LC50 (the source's name)

| Structure (SMILES) | CC50 |
| --- | --- |
| CNC(=O)c1cc(Oc2ccc3nc(NC(=O)Nc4ccc(Cl)c(Cl)c4)sc3c2)ccn1 | > 100 µM |

tested on: K562; test: Antiproliferative activity against human K562 cells assessed as growth inhibition after 48 hrs by sulforhodamine B assay; type: functional; settings: K562, 48 h

| Structure (SMILES) | GI50 | TGI |
| --- | --- | --- |
| CNC(=O)c1cc(Oc2ccc3nc(NC(=O)Nc4ccc(Cl)c(Cl)c4)sc3c2)ccn1 | > 100 µM | > 100 µM |

same assay, conditions: K562, 48 h, read-out: LC50 (the source's name)

| Structure (SMILES) | CC50 |
| --- | --- |
| CNC(=O)c1cc(Oc2ccc3nc(NC(=O)Nc4ccc(Cl)c(Cl)c4)sc3c2)ccn1 | > 100 µM |

tested on: NCI-H226; test: Antiproliferative activity against human NCI-H226 cells assessed as cell growth at 10^-8 M after 48 hrs by sulforhodamine B assay; type: functional; settings: NCI-H226, 48 h, read-out: Activity

| Structure (SMILES) | growth at 0.01 µM |
| --- | --- |
| CNC(=O)c1cc(Oc2ccc3nc(NC(=O)Nc4ccc(Cl)c(Cl)c4)sc3c2)ccn1 | 104% |

tested on: SN12C; test: Antiproliferative activity against human SN12C cells assessed as cell growth at 10^-4 M after 48 hrs by sulforhodamine B assay; type: functional; settings: read-out: Activity

| Structure (SMILES) | growth at 100 µM |
| --- | --- |
| CNC(=O)c1cc(Oc2ccc3nc(NC(=O)Nc4ccc(Cl)c(Cl)c4)sc3c2)ccn1 | 9% |

tested on: not listed separately; test: Antiproliferative activity against human Caki1 cells assessed as cell growth at 10^-7 M after 48 hrs by sulforhodamine B assay; type: functional; settings: CAKI-1, 48 h, read-out: Activity

| Structure (SMILES) | growth at 0.1 µM |
| --- | --- |
| CNC(=O)c1cc(Oc2ccc3nc(NC(=O)Nc4ccc(Cl)c(Cl)c4)sc3c2)ccn1 | 99% |

From ChEMBL document CHEMBL3797052 (Eur J Med Chem, 2016)
